From patent US20080176787A1, “Parathyroid hormone analogues and methods of use” (priority 2005, published 2008)
Read-outs that look alike come from different tables or passages of the source. Marks after values point to notes of the source that are not given here.

How the values were obtained:
[1] = test system: OVX adult Cynomolgus monkeys; conditions: Humerus Mid-Diaphysis, F, 18 months, cited from earlier work
[2] = test system: OVX adult Cynomolgus monkeys; conditions: Femoral Neck, F, 18 months, cited from earlier work
[3] = test system: monkey; conditions: cited from earlier work
[4] = test system: postmenopausal women (with prior vertebral fractures); conditions: cited from earlier work; for hypercalcemia seen at least once, % of subjects: average of 19 months (placebo 2%)
[5] = test system: rats; conditions: rat, in vivo; cited from earlier work
[6] = test system: patients; conditions: cited from earlier work
[7] = test system: rats; test: Rat oncogenicity study, 104 weeks subcutaneous; type: in vivo; conditions: 0.5, 5, 30, and 50 μg/kg/day SC
Procedure: Prior art PTHs cause osteosarcomas in animals if administered over a course of two years. The PTH peptides of the present invention, including Ostabolin-C™ and PTH 1-30, are administered subcutaneously to rats for 104 weeks at doses of 0.5, 5, 30, and 50 μg/kg/day. The test article is administered subcutaneously. […] This difference could be due to the different amino acids sequences and/or to the different signalling pathways activated by the PTH molecules.

[8] = teriparatide 0, 0.5, 2, 10 μg/kg, 12 mth monkey
[9] = 20 μg (6 months), inferred from graphed data

CC[C@H](C)[C@H](NC(=O)[C@H](CCC(=O)O)NC(=O)[C@H](CO)NC(=O)[C@@H](NC(=O)[C@@H](N)CO)C(C)C)C(=O)N[C@@H](CCC(N)=O)C(=O)N[C@@H](CC(C)C)C(=O)N[C@@H](CCSC)C(=O)N[C@@H](Cc1cnc[nH]1)C(=O)N[C@@H](CC(N)=O)C(=O)N[C@@H](CC(C)C)C(=O)NCC(=O)N[C@@H](CCCCN)C(=O)N[C@@H](Cc1cnc[nH]1)C(=O)N[C@@H](CC(C)C)C(=O)N[C@@H](CC(N)=O)C(=O)N[C@@H](CO)C(=O)N[C@@H](CCSC)C(=O)N[C@@H](CCC(=O)O)C(=O)N[C@@H](CCCN=C(N)N)C(=O)N[C@H](C(=O)N[C@@H](CCC(=O)O)C(=O)N[C@@H](Cc1c[nH]c2ccccc12)C(=O)N[C@@H](CC(C)C)C(=O)N[C@@H](CCCN=C(N)N)C(=O)N[C@@H](CCCCN)C(=O)N[C@@H](CCCCN)C(=O)N[C@@H](CC(C)C)C(=O)N[C@@H](CCC(N)=O)C(=O)N[C@@H](CC(=O)O)C(=O)N[C@H](C(=O)N[C@@H](Cc1cnc[nH]1)C(=O)N[C@@H](CC(N)=O)C(=O)N[C@@H](Cc1ccccc1)C(=O)O)C(C)C)C(C)C [Forteo, hPTH-(1-34)]
% Cortical Porosity ([1]; 1 μg/kg/day): ~15.0* % | % Cortical Porosity ([1]; 5 μg/kg/day): ~25* % | % Cortical Porosity ([2]; 1 μg/kg/day): 8.5 ± 0.8 % | % Cortical Porosity ([2]; 5 μg/kg/day): 8.9 ± 0.6 % | nephropathy ([3]; pre-clinical toxicity): induces a mineralizing nephropathy in monkeys and possibly rats | Free Ca [3, 8]: Free Ca increased | serum neutralising antibodies [3, 8]: detected all doses | tubulo-interstitial nephritis [3, 8]: nephritis all doses; | NoAEL ([3]; teriparatide, 12 mth monkey): <0.5 µg/kg | Mean % Change In Femoral Neck (BMD) ([4]; 20 μg for at least 12 Months): 1.54% | Mean % Change In Total Hip (BMD) ([4]; 20 μg for at least 12 Months): 1.70% | Mean % Change In Trochanter (BMD) ([4]; 20 μg for at least 12 Months): 2.68% | hypercalcemia seen at least once, % of subjects ([4]; 20 μg/day): 11% | hypercalcemia seen at least once, % of subjects ([4]; 40 μg/day): 28% | BMD in distal and mid-shaft radius compared to placebo ([4]; Neer et al.): decrease in BMD | osteosarcoma in rats (warning label) [5]: increase in incidence of osteosarcoma in rats | CTx [6, 9]: 3300^2 pM/L | P1NP [6, 9]: 71^2 μg/L | TH-BMD (%) [6, 9]: 0.6^2% | FN-BMD (%) ([6]; 20 μg (6 months)): 1.02% | LS-BMD (%) ([6]; 20 μg (6 months)): 5.2% | Mean [Ca] ([6]; 20 μg (6 months)): 0.075 mmol/L | Pts > 2.75 mmol/L ([6]; in vivo): 5 | Pts > 2.75 mmol/L (sustained) ([6]; in vivo): 2

PTH(1-30) (SVSEIQLMHNLGKHLNSMERVEWLRKKLQD; Parathyroid hormone; UniProt P01270 32-61, looked up, fragment) [PTH 1-30]
incidence of osteosarcomas compared to prior art PTH peptides [7]: lower incidences of osteosarcomas
